# Measurements: PubChem BioAssay AID651760 (The Scripps Research Institute Molecular Screening Center, 2012)
# Active and inactive are the calls of the source. No rule for the calls is given here.
# Molecular target: Hepatocyte nuclear factor 4-alpha (Homo sapiens) (UniProt P41235)
# Assay: IC50 for blocking HNF4 dimer formation – biochemical, luminescence, late stage, counter-screen for ABHD5-PLIN5 interaction inhibitor project, dose response (AID 651760)
# Settings: HNF4 dimerization, luminescence biochemical assay
# Chain of Hepatocyte nuclear factor 4-alpha (Homo sapiens) (P41235 whole entry, looked up): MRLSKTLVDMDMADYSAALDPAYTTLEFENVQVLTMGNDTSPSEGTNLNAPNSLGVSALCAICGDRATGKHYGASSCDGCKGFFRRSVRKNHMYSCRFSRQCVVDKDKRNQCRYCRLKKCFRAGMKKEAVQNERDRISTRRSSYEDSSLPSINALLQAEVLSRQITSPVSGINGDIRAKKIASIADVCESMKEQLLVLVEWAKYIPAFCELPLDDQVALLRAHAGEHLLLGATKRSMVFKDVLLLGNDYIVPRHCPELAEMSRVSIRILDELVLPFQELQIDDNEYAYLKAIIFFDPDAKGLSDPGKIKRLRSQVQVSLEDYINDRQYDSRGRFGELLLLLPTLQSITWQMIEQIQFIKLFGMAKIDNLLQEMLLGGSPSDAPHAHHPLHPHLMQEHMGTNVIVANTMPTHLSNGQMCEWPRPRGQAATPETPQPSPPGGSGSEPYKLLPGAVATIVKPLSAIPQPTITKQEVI
row,SMILES,IC50
1,CC(=O)Nc1ccc(S(=O)(=O)N2c3ccc(F)cc3CCC2C)cc1 (stereo not given),> 39.8 µM (inactive)
2,CN(C)CCCN(C(=O)CCc1ccccc1)c1nc2ccc(Br)cc2s1,> 39.8 µM (inactive)
3,CCN(CC)CCC(C)OC(c1ccccc1)c1ccccc1 (stereo not given),5.57 µM
4,NC(=NCCCCCCN=C(N)/N=C(\N)Nc1ccc(Cl)cc1)/N=C(\N)Nc1ccc(Cl)cc1,inactive
5,FC(F)(F)c1cccc(NC(=S)N(CCCN2CCCC2)Cc2cccn2Cc2ccc(Cl)cc2)c1,> 39.8 µM (inactive)
6,CCCCOC(=O)Nc1cc(C(=O)OC)ccc1C(=O)OC,> 39.8 µM (inactive)
7,O=c1[nH]c(C2CCN(S(=O)(=O)c3ccc(S(=O)(=O)NC4CC4)cc3)CC2)nc2c1nnn2Cc1ccc(F)cc1,> 39.8 µM (inactive)
8,COc1ccc(C)c2sc(N(CCN(C)C)C(=O)/C=C/c3cccs3)nc12,inactive
9,COc1ccc(NC(=S)N(CCCN2CCCC2)Cc2cccn2Cc2ccc(Cl)cc2)cc1Cl,> 39.8 µM (inactive)
10,COc1cc(C)c2sc3ccccc3c(=O)c2c1NCCN(C)C,> 39.8 µM (inactive)
11,COc1cc2c(cc1OC)C(C)N(CCc1ccc(Cl)cc1)CC2 (stereo not given),> 39.8 µM (inactive)
12,CC1CCN(S(=O)(=O)c2ccc(NC(=O)Cc3cccs3)cc2)CC1,> 39.8 µM (inactive)
13,O=c1[nH]c(C2CCN(S(=O)(=O)c3ccc(F)cc3)CC2)nc2c1nnn2Cc1ccc2c(c1)OCCO2,> 39.8 µM (inactive)
14,CCOc1cc(N)c(Cl)cc1C(=O)NCC1CN(Cc2ccc(F)cc2)CCO1 (stereo not given),4.18 µM
15,CC(C)c1ccc(N2C=Nc3ccc(C(C)C)cc3C2)cc1,2.8 µM
16,CCOC(=O)c1c(NC(=O)/C=C/C(=O)O)sc(C)c1-c1ccc(C(C)(C)C)cc1,8.97 µM
17,CC1CCN(S(=O)(=O)c2ccc(NC(=O)Cc3ccccc3)cc2)CC1,> 39.8 µM (inactive)
18,CC(=O)Cc1cc(O)c2ccccc2c1OC(=O)c1ccccc1,8.21 µM
19,O=C(/C(=C/O)N=Nc1ccc(Cl)cc1)c1ccncc1,inactive
20,CC(=O)Cc1cc(O)c2ccccc2c1OC(=O)c1ccc(Br)cc1,inactive

row,SMILES,IC50
1,C=C[C@]1(C)C[C@@H](OC(=O)CSCCN(CC)CC)[C@]2(C)C(C)CC[C@]3(CCC(=O)[C@H]32)[C@@H](C)[C@@H]1O (stereo not given in full),> 39.8 µM (inactive)
2,CCCNC(=O)Nc1ccc2c(c1)N(C)C(=O)c1ccccc1S2,> 39.8 µM (inactive)
3,CN(C)CCOC1(Cc2ccc(F)cc2)CCC(C(C)(C)C)CC1 (stereo not given),> 39.8 µM (inactive)
4,COc1cc(OC)cc(C(=O)NC(=S)N(Cc2ccccc2)C(C)C)c1,> 39.8 µM (inactive)
5,CC1=CC(C)(C)Nc2ccc(OC(=O)C(C)N3C(=O)c4ccccc4C3=O)cc21 (stereo not given),inactive
6,CCN(CC)CCOc1ccc(/C(=C(/Cl)c2ccccc2)c2ccccc2)cc1,5.09 µM
7,CCN(CC)CCNC(=O)c1ccc(NC(=O)c2cn(-c3ccccc3)nc2-c2cccs2)cc1,> 39.8 µM (inactive)
8,O=C(C[n+]1cccc(CNC(=O)c2ccc(OC(F)F)cc2)c1)Nc1cccc(C(F)(F)F)c1,> 39.8 µM (inactive)
9,CCN(CC)CCOCCOC(=O)C1(c2ccccc2)CCCC1,6.03 µM
10,Cc1cc(C)c(NC(=O)CN2CCN3CCCC3C2)c(C)c1 (stereo not given),> 39.8 µM (inactive)
11,CCCCNC(=O)Nc1ccc2c(c1)N(C)C(=O)c1ccccc1S2,> 39.8 µM (inactive)
12,CN1CCC(=C2c3ccccc3CC(=O)c3sccc32)CC1,> 39.8 µM (inactive)
13,COc1ccccc1-c1cc(C(=O)NC2CCN(C)CC2)c2ccc(Cl)c(C)c2n1,> 39.8 µM (inactive)
14,CCN(CC)CCN(CC(=O)Nc1c(C)cc(C)cc1C)C(=O)c1ccccc1,> 39.8 µM (inactive)
15,COCCN(CCOC)c1nc(N)c2c(N)nc3c(c2c1C#N)CC(=O)N3Cc1ccc(Cl)cc1,> 39.8 µM (inactive)
16,CN(C)CCN(Cc1ccco1)c1ccccn1,> 39.8 µM (inactive)
17,Cc1nc2c(o1)CCc1ccccc1C2N1CCN(C)CC1 (stereo not given),> 39.8 µM (inactive)
18,CCOC(=O)c1c(NC(C)=O)sc2c1CCC(C=O)=C2Sc1ccccc1,inactive
19,CN(C)CCCN(C(=O)CCc1ccccc1)c1nc2ccc(Cl)cc2s1,> 39.8 µM (inactive)
20,Cc1ccc2nc3cc([N+](=O)[O-])cc([N+](=O)[O-])c3cc2c1,inactive
